Reference: paper PMC5884648, “Relationship between the agonist activity of synthetic ligands of TRAIL-R2 and their cell surface binding modes” (Oncotarget, 2018)
*1 amine or outer side, *2 acyl side, *3 side chain or, on linkers, in order; H or OH if unused. Where a SMILES comes first, the peptide text is derived from it. Bridges are numbered along the chain shown (N, C = ends). Roman numbers before positions name the chains, in order. X2 = NC(CCC(=O)[*:1])CCC(=O)[*:2]

Legend:
[1] = system: BJAB cells; assay: Cell viability MTS assay, BJAB; type: cell-based, human; conditions: 24 hours
Experimental: (§1) BJAB, Jurkat and HCT116 cells (10^5 cells/well) were cultured in 100 µL of culture medium in 96-flat bottom well plates. The next day, cells were treated with the indicated concentrations of the different TRAILmin/DR5 peptides. After 24 hours of treatment cell viability measurement was performed by the MTS assay according to the manufacturer specification (Promega Corporation, Madison, WI, USA).

[2] = system: HCT116 cells; assay: Cell viability MTS assay, HCT116; type: cell-based, human; conditions: 24 hours
Experimental: as §1

[3] = system: Jurkat cells; assay: Cell viability MTS assay, Jurkat; type: cell-based, human; conditions: 24 hours
Experimental: as §1

[4] = molecular target: T1, human TRAIL-R2 (Homo sapiens, UniProt O14763); assay: Surface plasmon resonance on sensor-immobilized TRAIL-R2; type: binding; conditions: for koff / kon: SPR, 25° C, Langmuir model
T1 construct: purchased Enzo Life Sciences
Experimental: SPR assays were performed on a Biacore T200™, at 25° C. The running buffer was HBS-EP [10 mM HEPES (pH 7.4) containing 0.15 M NaCl, 3.4 mM EDTA and 0.005% (v/v) Tween P20]. The human TRAIL-R2 (Enzo Life Sciences, Farmingdale, NY, USA) receptor was immobilized on a sCM5 sensor chip (GE Healthcare) using the standard amine coupling procedure. The receptors were diluted in 10 mM acetate buffer (pH 5.0) at a concentration of 5 μg/mL. The TRAIL-R2 immobilization level on the sensor chip was 430 RU. Peptides were injected at a flow rate of 5 μL/min for 120 s and allowed to dissociate for an additional 420 s. Surfaces were then regenerated for 5 s with 25 mM HCl. All binding curves were double-referenced (i.e. subtraction of the data of the empty flow cell followed by the subtraction of the data from a running buffer injection cycle).
Double-referenced SPR binding curves sets were fitted globally using the BIAevaluation 4.1.1 (GE Healthcare Biacore) or TraceDrawer (Ridgeview Diagnostics AB, Uppsala, Sweden) softwares. The signal recorded with the LigandTracer on an empty spot or slide was subtracted from that recorded on cell-carrying slides. The resulting binding curves were analyzed by kinetic distribution analysis using the tool Interaction Map (Ridgeview Diagnostics AB, Uppsala, Sweden). Interaction Map decomposes the kinetic curve recorded for the binding of a homogeneous ligand to a heterogeneous group of targets into its different components. Results are represented as interaction maps (kon versus koff, log scale), where the color of each populated area represents its degree of contribution to the kinetic curve (red = high contribution, blue = low contribution).

[5] = TRAIL-R2 surface 1, one:one interaction model
[6] = TRAIL-R2 surface 2, one:one interaction model

T1 sequence (O14763 56-440): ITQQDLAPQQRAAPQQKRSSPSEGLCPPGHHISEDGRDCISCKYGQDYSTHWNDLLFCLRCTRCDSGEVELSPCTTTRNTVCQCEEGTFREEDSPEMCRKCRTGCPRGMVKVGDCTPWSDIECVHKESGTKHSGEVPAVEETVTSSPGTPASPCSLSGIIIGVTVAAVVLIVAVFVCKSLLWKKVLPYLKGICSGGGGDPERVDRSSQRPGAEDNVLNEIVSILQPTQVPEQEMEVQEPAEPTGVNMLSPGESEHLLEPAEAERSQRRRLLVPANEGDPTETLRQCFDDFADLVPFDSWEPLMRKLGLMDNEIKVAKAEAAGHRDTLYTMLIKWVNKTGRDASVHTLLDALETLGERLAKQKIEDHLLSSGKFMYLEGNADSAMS

koff [4] [s⁻¹] | kon [4] [M⁻¹ s⁻¹] | Rmax [4, 5] | Rmax [4, 6] | SMILES | apoptosis induction in BJAB cells [1] | apoptosis induction in HCT116 cells [2] | apoptosis induction in Jurkat cells [3]
0.0014 | 28000 | 38 | 13 | CC[C@H](C)[C@@H]1NC(=O)[C@H](CCCNC(=N)N)NC(=O)[C@H](CC(N)=O)NC(=O)[C@H](CC(=O)O)NC(=O)[C@H](CC(C)C)NC(=O)[C@@H](NC(=O)[C@H](CC(=O)O)NC(=O)[C@H](Cc2c[nH]c3ccccc23)NC(C)=O)CSSC[C@@H](C(=O)N[C@H](C(=O)N[C@@H](CCCCNC(=O)CCC(N)CCC(=O)NCCCC[C@H](NC(=O)[C@@H](NC(=O)[C@@H]2CSSC[C@H](NC(=O)[C@H](CC(=O)O)NC(=O)[C@H](Cc3c[nH]c4ccccc34)NC(C)=O)C(=O)N[C@@H](CC(C)C)C(=O)N[C@@H](CC(=O)O)C(=O)N[C@@H](CC(N)=O)C(=O)N[C@@H](CCCNC(=N)N)C(=O)N[C@@H]([C@@H](C)CC)C(=O)NCC(=O)N[C@@H](CCCNC(=N)N)C(=O)N[C@@H](CCCNC(=N)N)C(=O)N[C@@H](CCC(N)=O)C(=O)N2)C(C)C)C(=O)N[C@@H](CC(C)C)C(N)=O)C(=O)N[C@@H](CC(C)C)C(N)=O)C(C)C)NC(=O)[C@H](CCC(N)=O)NC(=O)[C@H](CCCNC(=N)N)NC(=O)[C@H](CCCNC(=N)N)NC(=O)CNC1=O (some centres unmarked) [1d] (I: Ac-WDCLDNRIGRRQCVKL-NH2 / II: Ac-WDCLDNRIGRRQCVKL-NH2; disulfide I:3-I:13, II:3-II:13; linker I:15-II:15 via X2; N-terminus and C-terminus assumed) | underwent apoptosis | strong resistance | strong resistance
0.0026 | 5300 | 33 | 11 | CC[C@H](C)[C@@H]1NC(=O)[C@H](CCCNC(=N)N)NC(=O)[C@H](CC(N)=O)NC(=O)[C@H](CC(=O)O)NC(=O)[C@H](CC(C)C)NC(=O)[C@@H](NC(=O)[C@H](CC(=O)O)NC(=O)[C@H](Cc2c[nH]c3ccccc23)NC(C)=O)CSSC[C@@H](C(=O)N[C@H](C(=O)N[C@@H](CCCCN)C(=O)N[C@@H](CC(C)C)C(N)=O)C(C)C)NC(=O)[C@H](CCC(N)=O)NC(=O)[C@H](CCCNC(=N)N)NC(=O)[C@H](CCCNC(=N)N)NC(=O)CNC1=O [1m] (Ac-WDCLDNRIGRRQCVKL-NH2; disulfide 3-13; N-terminus and C-terminus assumed) |  |  | 
